Where a name gives a salt, the structure may show the parent alone. Read-outs that look alike come from different tables or passages of the source.
How the values were obtained:
[1] = molecular target: purified human plasma kallikrein (Homo sapiens (Human), UniProt P03952); test: Plasma kallikrein enzyme inhibition assay (chromogenic substrate S-2302); format: biochemical; details: measured at 25° C. (no asterisk)
[2] = molecular target: purified human Factor XIa (Homo sapiens (Human), UniProt P03951); test: Factor XIa enzyme inhibition assay (chromogenic substrate S-2366)
[3] = read-out: Factor XIa Ki, measured at 25° C.

Sequence of purified human plasma kallikrein (P03952 391-638): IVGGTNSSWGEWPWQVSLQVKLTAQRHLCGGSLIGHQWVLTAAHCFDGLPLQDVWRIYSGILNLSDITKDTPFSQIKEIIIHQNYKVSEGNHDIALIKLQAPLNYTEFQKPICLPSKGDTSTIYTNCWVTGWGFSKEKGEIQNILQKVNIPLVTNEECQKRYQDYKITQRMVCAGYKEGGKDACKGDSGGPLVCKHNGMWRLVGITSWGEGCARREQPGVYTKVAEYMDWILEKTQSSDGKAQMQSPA
Sequence of purified human plasma kallikrein (P03952 20-390 partner): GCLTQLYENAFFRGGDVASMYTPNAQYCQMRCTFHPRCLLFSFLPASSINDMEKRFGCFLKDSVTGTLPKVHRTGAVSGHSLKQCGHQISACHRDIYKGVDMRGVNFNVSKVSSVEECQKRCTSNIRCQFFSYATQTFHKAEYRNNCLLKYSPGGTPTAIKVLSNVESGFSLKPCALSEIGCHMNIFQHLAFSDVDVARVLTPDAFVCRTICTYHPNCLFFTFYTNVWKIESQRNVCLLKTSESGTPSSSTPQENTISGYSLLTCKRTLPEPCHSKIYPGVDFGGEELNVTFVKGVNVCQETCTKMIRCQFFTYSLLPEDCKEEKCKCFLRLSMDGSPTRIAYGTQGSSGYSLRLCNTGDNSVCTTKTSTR
Sequence of purified human Factor XIa (P03951 388-625): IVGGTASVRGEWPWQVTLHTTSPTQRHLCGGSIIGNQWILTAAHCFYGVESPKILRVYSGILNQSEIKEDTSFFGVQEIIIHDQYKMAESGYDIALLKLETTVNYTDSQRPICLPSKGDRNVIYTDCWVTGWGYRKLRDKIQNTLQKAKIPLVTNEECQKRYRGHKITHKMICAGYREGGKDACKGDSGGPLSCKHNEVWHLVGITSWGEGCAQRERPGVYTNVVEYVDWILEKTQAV
Sequence of purified human Factor XIa (P03951 19-387 partner): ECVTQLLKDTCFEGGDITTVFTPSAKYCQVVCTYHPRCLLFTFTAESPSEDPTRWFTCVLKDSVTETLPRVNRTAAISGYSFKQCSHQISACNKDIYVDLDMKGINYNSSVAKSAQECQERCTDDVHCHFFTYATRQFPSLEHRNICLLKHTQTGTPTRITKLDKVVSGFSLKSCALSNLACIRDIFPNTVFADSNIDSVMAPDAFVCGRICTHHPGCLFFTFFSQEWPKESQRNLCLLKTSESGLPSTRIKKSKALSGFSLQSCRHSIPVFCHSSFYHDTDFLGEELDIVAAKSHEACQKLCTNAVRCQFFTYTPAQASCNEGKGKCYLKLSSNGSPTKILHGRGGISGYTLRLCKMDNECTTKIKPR

Ki [2, 3]	Compound	further results
–	COCCOc1cccc2c1CCN(C(=O)[C@H]1CC(c3cccc(Cl)c3F)=NO1)[C@@H]2C(=O)Nc1ccc(C(=O)O)cc1 [Example 114, 4-((S)-2-((R)-3-(3-Chloro-2-fluorophenyl)-4,5-dihydroisoxazole-5-carbonyl)-5-(2-methoxyethoxy)-1,2,3,4-tetrahydroisoquinoline-1-carboxamido)benzoic Acid]	Ki [1]: 15.2 nM
–	COC1CCN(c2cccc3c2CCN(C(=O)C2CC(c4cccc(Cl)c4F)=NO2)C3C(=O)Nc2ccc(C(=O)O)cc2)CC1 (single isomer, unassigned) [Example 304, 4-(2-(3-(3-chloro-2-fluorophenyl)-4,5-dihydroisoxazole-5-carbonyl)-5-(4-methoxypiperidin-1-yl)-1,2,3,4-tetrahydroisoquinoline-1-carboxamido)benzoic acid, TFA salt]	Ki ([1]; TFA salt): 232 nM
–	O=C(O)c1ccc(NC(=O)[C@H]2c3ccccc3CCN2C(=O)[C@H]2CC(c3cccc(Cl)c3F)=NO2)cc1 [Example 5, 4-((R)-2-((R)-3-(3-Chloro-2-fluorophenyl)-4,5-dihydroisoxazole-5-carbonyl)-1,2,3,4-tetrahydroisoquinoline-1-carboxamido)benzoic acid]	Ki [1]: 1380 nM
–	CNC(=O)c1ccc(-c2cccc3c2CCN(C(=O)[C@H]2CC(c4cccc(Cl)c4F)=NO2)[C@H]3C(=O)Nc2ccc(C(=O)O)cc2)cn1 [Example 20, 4-((R)-2-((R)-3-(3-Chloro-2-fluorophenyl)-4,5-dihydroisoxazole-5-carbonyl)-5-(6-(methylcarbamoyl)pyridin-3-yl)-1,2,3,4-tetrahydroisoquinoline-1-carboxamido)benzoic acid, TFA salt]	Ki [1]: 840 nM
–	COCCOc1cccc2c1CCN(C(=O)[C@H]1CC(c3cccc(Cl)c3F)=NO1)[C@H]2C(=O)Nc1ccc(C(=O)O)cc1 [Example 115, 4-((R)-2-((R)-3-(3-Chloro-2-fluorophenyl)-4,5-dihydroisoxazole-5-carbonyl)-5-(2-methoxyethoxy)-1,2,3,4-tetrahydroisoquinoline-1-carboxamido)benzoic acid]	Ki [1]: 61.3 nM
466 nM	COC1CCN(c2cccc3c2CCN(C(=O)c2cc(-c4cccc(F)c4)no2)C3C(=O)Nc2ccc(C(=O)O)cc2)CC1 (stereo not drawn) [Example 152, 4-(2-(3-(3-fluorophenyl)isoxazole-5-carbonyl)-5-(4-methoxypiperidin-1-yl)-1,2,3,4-tetrahydroisoquinoline-1-carboxamido)benzoic acid, TFA salt]	–
56.2 nM	COC(=O)C12CCC(NC(=O)C3c4cccc(-c5cncnc5)c4CCN3C(=O)c3cn(-c4cccc(Cl)c4F)nn3)(CC1)CC2 (stereo not drawn) [Example 142, Methyl 4-(2-{[1-(3-chloro-2-fluorophenyl)-1H-1,2,3-triazol-4-yl]carbonyl}-5-(pyrimidin-5-yl)-1,2,3,4-tetrahydroisoquinoline-1-amido)bicyclo[2.2.2]octane-1-carboxylate, TFA salt]	–
< 5 nM	O=C(O)c1ccc(NC(=O)C2c3cccc(-c4ccncc4)c3CCN2C(=O)c2cn(-c3cccc(Cl)c3F)nn2)cc1 (stereo not drawn) [Example 186, 4-(2-(1-(3-chloro-2-fluorophenyl)-1H-1,2,3-triazole-4-carbonyl)-5-(pyridin-4-yl)-1,2,3,4-tetrahydroisoquinoline-1-carboxamido)benzoic acid, TFA salt]	–
< 5 nM	O=C(O)c1ccc(NC(=O)C2c3cccc(-c4ccc(F)c(C(=O)N5CCCC5)c4)c3CCN2C(=O)c2cn(-c3cccc(Cl)c3F)nn2)cc1 (stereo not drawn) [Example 184, 4-(2-(1-(3-chloro-2-fluorophenyl)-1H-1,2,3-triazole-4-carbonyl)-5-(4-fluoro-3-(pyrrolidine-1-carbonyl)phenyl)-1,2,3,4-tetrahydroisoquinoline-1-carboxamido)benzoic acid]	–
–	COc1cccc(-c2cccc3c2CCN(C(=O)c2cn(-c4cccc(Cl)c4F)nn2)C3C(=O)Nc2ccc(C(=O)O)cc2)c1F (stereo not drawn) [Example 180, 4-(2-(1-(3-chloro-2-fluorophenyl)-1H-1,2,3-triazole-4-carbonyl)-5-(2-fluoro-3-methoxyphenyl)-1,2,3,4-tetrahydroisoquinoline-1-carboxamido)benzoic acid]	Ki [2]: 5.2 nM
< 5 nM	O=C(O)c1ccc(NC(=O)[C@@H]2c3cccc(N4CCN(C5COC5)CC4)c3CCN2C(=O)[C@H]2CC(c3cccc(Cl)c3F)=NO2)cc1 [Example 227, 4-((S)-2-((R)-3-(3-Chloro-2-fluorophenyl)-4,5-dihydroisoxazole-5-carbonyl)-5-(4-(oxetan-3-yl)piperazin-1-yl)-1,2,3,4-tetrahydroisoquinoline-1-carboxamido)benzoic acid, 2 TFA salt]	–
< 5 nM	CN(C)c1ncc(-c2cccc3c2CCN(C(=O)c2cn(-c4cccc(Cl)c4F)nn2)C3C(=O)Nc2ccc(C(=O)O)cc2)cn1 (stereo not drawn) [Example 183, 4-(2-(1-(3-chloro-2-fluorophenyl)-1H-1,2,3-triazole-4-carbonyl)-5-(2-(dimethylamino)pyrimidin-5-yl)-1,2,3,4-tetrahydroisoquinoline-1-carboxamido)benzoic acid]	–
< 5 nM	NC(=O)Cc1cccc(-c2cccc3c2CCN(C(=O)c2cn(-c4cccc(Cl)c4F)nn2)C3C(=O)Nc2ccc(C(=O)O)cc2)c1 (stereo not drawn) [Example 188, 4-(5-(3-(2-amino-2-oxoethyl)phenyl)-2-(1-(3-chloro-2-fluorophenyl)-1H-1,2,3-triazole-4-carbonyl)-1,2,3,4-tetrahydroisoquinoline-1-carboxamido)benzoic acid]	–
< 5 nM	O=C(O)c1ccc(NC(=O)C2c3cccc(-c4cnc5[nH]ccc5c4)c3CCN2C(=O)c2cn(-c3cccc(Cl)c3F)nn2)cc1 (stereo not drawn) [Example 181, 4-(2-(1-(3-chloro-2-fluorophenyl)-1H-1,2,3-triazole-4-carbonyl)-5-(1H-pyrrolo[2,3-b]pyridin-5-yl)-1,2,3,4-tetrahydroisoquinoline-1-carboxamido)benzoic acid, TFA salt]	–
< 5 nM	NCc1ccc(-c2cccc3c2CCN(C(=O)c2cn(-c4cccc(Cl)c4F)nn2)C3C(=O)Nc2ccc(C(=O)O)cc2)cc1 (stereo not drawn) [Example 163, 4-(5-(4-(aminomethyl)phenyl)-2-(1-(3-chloro-2-fluorophenyl)-1H-1,2,3-triazole-4-carbonyl)-1,2,3,4-tetrahydroisoquinoline-1-carboxamido)benzoic acid, TFA salt]	–
< 5 nM	Cn1ncc2ccc(-c3cccc4c3CCN(C(=O)c3cn(-c5cccc(Cl)c5F)nn3)C4C(=O)Nc3ccc(C(=O)O)cc3)cc21 (stereo not drawn) [Example 170, 4-(2-(1-(3-chloro-2-fluorophenyl)-1H-1,2,3-triazole-4-carbonyl)-5-(1-methyl-1H-indazol-6-yl)-1,2,3,4-tetrahydroisoquinoline-1-carboxamido)benzoic acid]	–

Compound	Ki [2, 3]	further results
4-(2-(1-(3-chloro-2- fluorophenyl)-5-hydroxy- 1H-pyrazole-4-carbonyl)-5- (4-methylpiperazin-1-yl)- 1,2,3,4- tetrahydroisoquinoline-1- carboxamido)benzoic acid, 2 TFA salt. [Example 214]	713 nM	–
Nc1cc(-c2cccc3c2CCN(C(=O)c2cn(-c4cccc(Cl)c4F)nn2)C3C(=O)Nc2ccc(C(=O)O)cc2)ccn1 (stereo not drawn) [Example 38, 4-(5-(2-aminopyridin-4-yl)-2-(1-(3-chloro-2-fluorophenyl)-1H-1,2,3-triazole-4-carbonyl)-1,2,3,4-tetrahydroisoquinoline-1-carboxamido)benzoic acid, bis-TFA salt]	< 5 nM	–
